The supplement of paper PMC10307832

Assays:
Experiment in all cases: relative viability (nuclei count vs DMSO), 5 days (fraction); higher = more cells survive
[1] = test system: ABC-1
Summary of the method: (§1)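 After 5 days of treatment, lung cancer cells in 1536-well plates were fixed and stained in a single step (final 0.05% Triton X-100, 1% formaldehyde, 1 ug/ml Hoechst) and their nuclei counted on 4× images. Treatment had been applied by pin tool the day after seeding as one drug alone or as a fixed anchor-drug dose with five library-drug doses (not always all listed) in √10 steps. Relative viability is the nuclei count of treated wells divided by that of vehicle wells, and values are medians of duplicate plates.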

[2] = test system: BEN
Summary of the method: as §1

[3] = test system: NCI-H2023
Summary of the method: as §1

[4] = test system: NCI-H522
Summary of the method: as §1

[5] = test system: NCI-H1915
Summary of the method: as §1

[6] = test system: LU99A
Summary of the method: as §1

[7] = test system: NCI-H1650
Summary of the method: as §1

[8] = test system: NCI-H1944
Summary of the method: as §1

[9] = test system: NCI-H1395
Summary of the method: as §1

[10] = test system: HCC-827
Summary of the method: as §1

[11] = test system: HCC-366
Summary of the method: as §1

[12] = test system: HCC-15
Summary of the method: as §1

[13] = test system: LCLC-97TM1
Summary of the method: as §1

[14] = test system: LC-2-ad
Summary of the method: as §1

[15] = test system: LOU-NH91
Summary of the method: as §1

[16] = test system: HOP-62
Summary of the method: as §1

[17] = test system: NCI-H661
Summary of the method: as §1

[18] = test system: COR-L 105
Summary of the method: as §1

[19] = test system: CAL-12T
Summary of the method: as §1

[20] = test system: HARA
Summary of the method: as §1

[21] = test system: NCI-H2009
Summary of the method: as §1

[22] = test system: NCI-H596
Summary of the method: as §1

[23] = test system: ChaGo-K-1
Summary of the method: as §1

[24] = test system: NCI-H650
Summary of the method: as §1

[25] = test system: HCC-44
Summary of the method: as §1

Structure (SMILES): Nc1cccc2c1CN(C1CCC(=O)NC1=O)C2=O (configuration not stated) [Lenalidomide] + Cc1nc(Nc2ncc(C(=O)Nc3c(C)cccc3Cl)s2)cc(N2CCN(CCO)CC2)n1 [Dasatinib] (partner 0.075 µM)
- relative viability ([1]; first compound 0.253 µM): 0.591
- relative viability ([1]; first compound 0.8 µM): 0.482
- relative viability ([1]; first compound 2.53 µM): 0.602
- relative viability ([1]; first compound 8 µM): 0.55
- relative viability ([2]; first compound 0.253 µM): 0.385
- relative viability ([2]; first compound 0.8 µM): 0.258
- relative viability ([2]; first compound 2.53 µM): 0.293
- relative viability ([2]; first compound 8 µM): 0.241
- relative viability ([3]; first compound 0.253 µM): 0.612
- relative viability ([3]; first compound 0.8 µM): 0.515
- relative viability ([3]; first compound 2.53 µM): 0.608
- relative viability ([3]; first compound 8 µM): 0.416
- relative viability ([4]; first compound 0.253 µM): 1
- relative viability ([4]; first compound 2.53 µM): 0.749
- relative viability ([4]; first compound 8 µM): 0.678
- relative viability ([5]; first compound 0.253 µM): 0.321
- relative viability ([5]; first compound 0.8 µM): 0.329
- relative viability ([5]; first compound 2.53 µM): 0.301
- relative viability ([5]; first compound 8 µM): 0.245
- relative viability ([6]; first compound 0.253 µM): 0.473
- relative viability ([6]; first compound 0.8 µM): 0.471
- relative viability ([6]; first compound 2.53 µM): 0.54
- relative viability ([6]; first compound 8 µM): 0.308
- relative viability ([7]; first compound 0.8 µM): 0.241
- relative viability ([7]; first compound 2.53 µM): 0.316
- relative viability ([7]; first compound 8 µM): 0.303
- relative viability ([8]; first compound 0.253 µM): 0.239
- relative viability ([8]; first compound 0.8 µM): 0.251
- relative viability ([8]; first compound 2.53 µM): 0.208
- relative viability ([8]; first compound 8 µM): 0.173
- relative viability ([9]; first compound 0.253 µM): 0.428
- relative viability ([9]; first compound 0.8 µM): 0.383
- relative viability ([9]; first compound 2.53 µM): 0.392
- relative viability ([9]; first compound 8 µM): 0.367
- relative viability ([10]; first compound 0.253 µM): 0.291
- relative viability ([10]; first compound 0.8 µM): 0.416
- relative viability ([10]; first compound 2.53 µM): 0.341
- relative viability ([10]; first compound 8 µM): 0.312
- relative viability ([11]; first compound 0.253 µM): 0.661
- relative viability ([11]; first compound 0.8 µM): 0.622
- relative viability ([11]; first compound 2.53 µM): 0.752
- relative viability ([11]; first compound 8 µM): 0.334
- relative viability ([12]; first compound 0.253 µM): 0.629
- relative viability ([12]; first compound 0.8 µM): 0.526
- relative viability ([12]; first compound 2.53 µM): 0.816
- relative viability ([12]; first compound 8 µM): 0.527
- relative viability ([13]; first compound 0.253 µM): 0.634
- relative viability ([13]; first compound 0.8 µM): 0.939
- relative viability ([13]; first compound 2.53 µM): 0.909
- relative viability ([13]; first compound 8 µM): 0.886
- relative viability ([14]; first compound 0.253 µM): 0.49
- relative viability ([14]; first compound 2.53 µM): 0.727
- relative viability ([14]; first compound 8 µM): 0.395
- relative viability ([15]; first compound 0.253 µM): 0.558
- relative viability ([15]; first compound 0.8 µM): 0.435
- relative viability ([15]; first compound 2.53 µM): 0.555
- relative viability ([15]; first compound 8 µM): 0.456
- relative viability ([16]; first compound 0.253 µM): 0.67
- relative viability ([16]; first compound 0.8 µM): 0.615
- relative viability ([16]; first compound 2.53 µM): 0.79
- relative viability ([16]; first compound 8 µM): 0.583
- relative viability ([17]; first compound 0.253 µM): 0.934
- relative viability ([17]; first compound 0.8 µM): 0.854
- relative viability ([17]; first compound 2.53 µM): 0.918
- relative viability ([17]; first compound 8 µM): 0.86
- relative viability ([18]; first compound 0.253 µM): 0.433
- relative viability ([18]; first compound 0.8 µM): 0.331
- relative viability ([18]; first compound 2.53 µM): 0.427
- relative viability ([18]; first compound 8 µM): 0.371
- relative viability ([19]; first compound 0.253 µM): 0.262
- relative viability ([19]; first compound 0.8 µM): 0.345
- relative viability ([19]; first compound 2.53 µM): 0.397
- relative viability ([19]; first compound 8 µM): 0.368
- relative viability ([20]; first compound 0.253 µM): 0.3
- relative viability ([20]; first compound 2.53 µM): 0.293
- relative viability ([20]; first compound 8 µM): 0.287
- relative viability ([21]; first compound 0.253 µM): 0.326
- relative viability ([21]; first compound 0.8 µM): 0.299
- relative viability ([21]; first compound 2.53 µM): 0.351
- relative viability ([21]; first compound 8 µM): 0.284
- relative viability ([22]; first compound 0.253 µM): 0.644
- relative viability ([22]; first compound 2.53 µM): 0.655
- relative viability ([22]; first compound 8 µM): 0.505
- relative viability ([23]; first compound 0.253 µM): 0.565
- relative viability ([23]; first compound 0.8 µM): 0.495
- relative viability ([23]; first compound 2.53 µM): 0.677
- relative viability ([23]; first compound 8 µM): 0.595
- relative viability ([24]; first compound 0.253 µM): 0.459
- relative viability ([24]; first compound 2.53 µM): 0.474
- relative viability ([24]; first compound 8 µM): 0.355

Structure (SMILES): Nc1cccc2c1CN(C1CCC(=O)NC1=O)C2=O (configuration not stated) [Lenalidomide] + Nc1ncn([C@H]2C[C@H](O)[C@@H](CO)O2)c(=O)n1 [Decitabine] (partner 2 µM)
- relative viability ([25]; first compound 0.253 µM): 0.946
- relative viability ([25]; first compound 0.8 µM): 0.781
- relative viability ([25]; first compound 2.53 µM): 1.01
- relative viability ([25]; first compound 8 µM): 0.853
- relative viability ([1]; first compound 0.253 µM): 0.929
- relative viability ([1]; first compound 0.8 µM): 1.05
- relative viability ([1]; first compound 2.53 µM): 0.827
- relative viability ([1]; first compound 8 µM): 0.939
- relative viability ([2]; first compound 0.253 µM): 0.728
- relative viability ([2]; first compound 0.8 µM): 0.635
- relative viability ([2]; first compound 2.53 µM): 0.766
- relative viability ([2]; first compound 8 µM): 0.62
- relative viability ([3]; first compound 0.253 µM): 0.205
- relative viability ([3]; first compound 0.8 µM): 0.269
- relative viability ([3]; first compound 2.53 µM): 0.248
- relative viability ([3]; first compound 8 µM): 0.231
- relative viability ([4]; first compound 0.253 µM): 0.759
- relative viability ([4]; first compound 0.8 µM): 0.76
- relative viability ([4]; first compound 2.53 µM): 0.694
- relative viability ([4]; first compound 8 µM): 0.626
- relative viability ([5]; first compound 0.253 µM): 0.247
- relative viability ([5]; first compound 0.8 µM): 0.253
- relative viability ([5]; first compound 2.53 µM): 0.274
- relative viability ([5]; first compound 8 µM): 0.241
- relative viability ([6]; first compound 0.253 µM): 0.894
- relative viability ([6]; first compound 0.8 µM): 0.823
- relative viability ([6]; first compound 2.53 µM): 0.868
- relative viability ([6]; first compound 8 µM): 0.702
- relative viability ([7]; first compound 0.253 µM): 0.387
- relative viability ([7]; first compound 0.8 µM): 0.424
- relative viability ([7]; first compound 2.53 µM): 0.419
- relative viability ([7]; first compound 8 µM): 0.479
- relative viability ([8]; first compound 0.253 µM): 0.446
- relative viability ([8]; first compound 2.53 µM): 0.457
- relative viability ([8]; first compound 8 µM): 0.393
- relative viability ([9]; first compound 0.253 µM): 0.763
- relative viability ([9]; first compound 2.53 µM): 0.743
- relative viability ([9]; first compound 8 µM): 0.703
- relative viability ([10]; first compound 0.253 µM): 0.336
- relative viability ([10]; first compound 0.8 µM): 0.284
- relative viability ([10]; first compound 2.53 µM): 0.348
- relative viability ([10]; first compound 8 µM): 0.35
- relative viability ([11]; first compound 0.253 µM): 0.337
- relative viability ([11]; first compound 0.8 µM): 0.377
- relative viability ([11]; first compound 2.53 µM): 0.366
- relative viability ([11]; first compound 8 µM): 0.354
- relative viability ([12]; first compound 0.253 µM): 0.766
- relative viability ([12]; first compound 2.53 µM): 0.763
- relative viability ([12]; first compound 8 µM): 0.594
- relative viability ([13]; first compound 0.253 µM): 0.226
- relative viability ([13]; first compound 0.8 µM): 0.236
- relative viability ([13]; first compound 2.53 µM): 0.256
- relative viability ([13]; first compound 8 µM): 0.221
- relative viability ([14]; first compound 0.253 µM): 0.685
- relative viability ([14]; first compound 0.8 µM): 0.81
- relative viability ([14]; first compound 2.53 µM): 0.744
- relative viability ([14]; first compound 8 µM): 0.79
- relative viability ([15]; first compound 0.253 µM): 0.815
- relative viability ([15]; first compound 0.8 µM): 0.826
- relative viability ([15]; first compound 2.53 µM): 0.831
- relative viability ([15]; first compound 8 µM): 0.765
- relative viability ([16]; first compound 0.253 µM): 0.264
- relative viability ([16]; first compound 0.8 µM): 0.239
- relative viability ([16]; first compound 2.53 µM): 0.224
- relative viability ([16]; first compound 8 µM): 0.212
- relative viability ([17]; first compound 0.253 µM): 0.568
- relative viability ([17]; first compound 0.8 µM): 0.548
- relative viability ([17]; first compound 2.53 µM): 0.621
- relative viability ([17]; first compound 8 µM): 0.568
- relative viability ([18]; first compound 0.253 µM): 0.684
- relative viability ([18]; first compound 0.8 µM): 0.704
- relative viability ([18]; first compound 2.53 µM): 0.763
- relative viability ([18]; first compound 8 µM): 0.711
- relative viability ([20]; first compound 0.253 µM): 0.597
- relative viability ([20]; first compound 2.53 µM): 0.538
- relative viability ([20]; first compound 8 µM): 0.561
- relative viability ([21]; first compound 0.253 µM): 0.415
- relative viability ([21]; first compound 0.8 µM): 0.387
- relative viability ([21]; first compound 2.53 µM): 0.406
- relative viability ([21]; first compound 8 µM): 0.397
- relative viability ([22]; first compound 0.253 µM): 0.85
- relative viability ([22]; first compound 0.8 µM): 1.46
- relative viability ([22]; first compound 2.53 µM): 1.06
- relative viability ([22]; first compound 8 µM): 0.95
- relative viability ([23]; first compound 0.253 µM): 0.519
- relative viability ([23]; first compound 0.8 µM): 0.551
- relative viability ([23]; first compound 2.53 µM): 0.525
- relative viability ([23]; first compound 8 µM): 0.538
- relative viability ([24]; first compound 0.253 µM): 0.312
- relative viability ([24]; first compound 0.8 µM): 0.349
- relative viability ([24]; first compound 2.53 µM): 0.351
- relative viability ([24]; first compound 8 µM): 0.332
